Results from patent publication US5594009A, “Fused pyrrolocarbazoles” (priority 1995, dated 1997).

Test system: indoleamine 2,3-dioxygenase (IDO) mRNA in THP-1 cells
Assay: Inhibition of Induction By IFNγ of IDO mRNA
Type: cell-based
Details: Homo sapiens, compound 400 nM, IFNγ 400 units/ml, IDO/GAPD mRNA ratio, 48 hours, read-out: IDO mRNA, Phosphorimager units, % of IFNγ-treated cells
Procedure: Fused pyrrolocarbazoles in accordance with our invention were tested for their ability to inhibit the induction by IFNγ of indoleamine 2,3-dioxygenase (IDO) mRNA in THP-1 cells, a human monocyte cell line.
Cell Culture: THP-1 cells (American Type Culture Collection, Rockville, Md.), a human monocytic leukemia cell line, were grown in RPMI 1640 medium (Mediatech, Herndon Valley, Va.) with 50 μM 2-mercaptoethanol and 10% fetal bovine serum. Cells were plated in T75 culture flasks, at 4×10^4 cells/cm^2 in 10 ml of medium, and were immediately treated with fused pyrrolocarbazoles at various concentrations. After 30 minutes recombinant (E. coli) IFNγ (Boehringer Mannheim Corporation,Indianapolis, Ind.) was added at 200-400 units/ml. Cells were incubated (37° C., 5% CO2 /95% Air) for 48 hours after treatment.
RNA Isolation: Cells were pelleted by centrifugation (50× g, 7 min.) and medium was decanted. The cells were then washed two times with phosphate buffered saline pH 7.2 (PBS) (Mediatech, Herndon Valley, Va.). The washed cell pellet was lysed in 2 ml RNAzol B (Tel-Test, Inc., Friendswood, Tex.). RNA was isolated by chloroform extraction, precipitated, and washed following the "RNAzol B isolation of RNA" protocol accompanying this product. RNA was then solubilized in H2 O, and the concentration and purity were determined by reading the absorbance at A260 nm and A280 nm. Finally, the RNA was reprecipitated in ethanol, overnight at -20° C.
cDNA Probes: Indoleamine 2,3-dioxygenase (IDO) cDNA was received from Sohan L. Gupta, Ph. D. (Hipple Cancer Research Center, Dayton, Ohio) (see Da., W. & Gupta, S. L. 168 Biochem. Biophys. Res. Commun. 1, 1990 and Hassanain, H. H. et al. 268 J. Biol. Chem. 5077, 1993). Glyceraldehyde-3-phosphate dehydrogenase (GAPD) cDNA was obtained through American Type Culture Collection (Rockville, Md.). These cDNA's were produced and purified using standard methods (see, Sambrook, Fritsch, Maniatis (1989) Molecular Cloning a Laboratory Manual/Second Edition 1, 1.21-1.24, 1.74-1.81, hereinafter in this Example, "Maniatis a") using Qiagen plasmid purification kits (Qiagen Inc., Chatsworth, Calif.). DNA concentration and purity were determined by absorbance at 280 nm and 260 nm. Specific DNA inserts were cut out by standard methods using restriction enzymes, and subsequently separated on agarose gels as in Maniatis (see, Sambrook, Fritsch, Maniatis (1989) Molecular Cloning a Laboratory Manual/Second Edition 1, 6.9-6.15, hereinafter in this Example, "Maniatis b"). cDNA probes were further purified for [^32 P] labeling using the Geneclean II DNA purification kit (BIO 101, Inc., La Jolla, Calif.). Probes were labeled with dCTP-α-^32 P (Amersham Corp., Arlington Heights, Ill.) by random primer labeling, using the Prime-a-GeneLabeling System (Promega Corp., Madison, Wis.).
Analysis and quantification of mRNA: IDO mRNA was detected by Northern blot analysis (see Maniatis a, p. 7.39-7.51) using standard methods. […] Quantification of IDO mRNA was carried out using a phosphorimager (Molecular Dynamics) in which density (i.e., amount of RNA) is expressed as relative phosphorimager units. […] GAPD mRNA measurement by phosphorimager quantification of Northern blots serves as a means to normalize for potential sample to sample differences in the amount of total RNA loaded on gels. […]

Q: With `O=C1NCc2c1c1c(c3[nH]c4ccccc4c23)Cc2ccccc2-1` [Compound I-2] as the molecule, how does the mrna remaining at 0.4 µM read?
A: The mrna remaining at 0.4 µM was 55%.
